According to patent US20240067673A1, “MODIFIED NUCLEOSIDE OR NUCLEOTIDE” (BIG SHENZHEN, priority 2020, published 2024):

Test system: DNA nanospheres prepared by using E. coli sequencing library
Test: Evaluation of blocking effect (incorporation and cleavage efficiency) on MGISEQ2000 sequencer
Assay type: biochemical
Details: for Cleavage efficiency (EC): ratio of Cleavage efficiency values for testing nucleotide and comparative nucleotide, thpp reagent, 65° C. 1 min, dTTP analogue; for Incorporation efficiency (EI): ratio of Incorporation efficiency values for testing nucleotide and comparative nucleotide (standard cold dNTP), dTTP analogue as cold dNTP
Description: 1. Evaluation of Blocking Effect
For each test, only one of the nucleotide analogues cold dNTP of the invention (dTTP, dATP, dCTP, and dGTP) was used. For ease of presentation, only testing results for dTTP were provided in the following table 1 for each kind of 3′-OH modification.
Sequencing was conducted according to the operation protocol of MGISEQ2000 sequencer, using the above nucleotide substrates and MGISEQ-2000RS high-throughput sequencing kit (FCL SE50).
(1) Preparing DNA nanospheres by using E. coli sequencing library;
(2) Loading DNA nanospheres onto the MGISEQ2000 sequencing chip;
(3) Amounting the loaded sequencing chip onto the MGISEQ2000 sequencer and set the sequencing process;
(4) Performing Test Round 1: incorporating standard hot dNTP, taking photos for recording signal value, and then cleaving the blocking group with thpp reagent, 65° C. 1 min.
(5) Performing Test Round 2: incorporating standard cold dNTP, then incorporating standard hot dNTP, taking photos for recording signal value, and then cleaving blocking group with thpp reagent, 65° C. 1 min.
(6) Performing Test Round 3: incorporating standard hot dNTP, taking photos for recording signal value, and then cleaving blocking group with thpp reagent, 65° C. 1 min.
(7) Performing Test Round 4: incorporating nucleotide analogues cold dNTP of the invention (only one kind of cold dNTP incorporated for each test), then incorporating standard hot dNTP, taking photos for recording signal value, and then cleaving blocking group with thpp reagent, 65° C. 1 min.
(8) Performing Test Round 5: incorporating standard hot dNTP, taking photos for recording signal value.
(9) Evaluating Incorporation efficiency and Cleavage efficiency.
Equation for Calculating Incorporation Efficiency: […]
wherein: • EI (Incorporation efficiency) is the ratio of Incorporation efficiency values for testing nucleotide and comparative nucleotide; • C1 is signal value of Test Round 1; • C2 is signal value of Test Round 2; • C3 is signal value of Test Round 3; • C4 is signal value of Test Round 4;
Equation for Calculating Cleavage Efficiency: […]
wherein: • Ec (Cleavage efficiency) is the ratio of Cleavage efficiency values for testing nucleotide and comparative nucleotide; • EI is the ratio of Incorporation efficiency values for testing nucleotide and comparative nucleotide; • C3 is signal value of Test Round 3; • C5 is signal value of Test Round 5; • CGT is the signals of base C, base G and base T in Test Round 3.

SMILES | Cleavage efficiency (EC) | Incorporation efficiency (EI)
Cc1cn([C@H]2CC(OC(=O)c3ccc([N+](=O)[O-])cc3CN=[N+]=[N-])[C@@H](COP(=O)(O)OP(=O)(O)OP(=O)(O)O)O2)c(=O)[nH]c1=O (stereo partly shown) | 112% | 101%
Cc1cn([C@H]2CC(OC(=O)c3ccccc3C(C)N=[N+]=[N-])[C@@H](COP(=O)(O)OP(=O)(O)OP(=O)(O)O)O2)c(=O)[nH]c1=O (stereo partly shown) | 105% | 101%
Cc1cn([C@H]2CC(OC(=O)c3occc3CN=[N+]=[N-])[C@@H](COP(=O)(O)OP(=O)(O)OP(=O)(O)O)O2)c(=O)[nH]c1=O (stereo partly shown) | 5% | 101%
Cc1cn([C@H]2CC(OC(=O)c3ccccc3C(C)SSCC(C)C)[C@@H](COP(=O)(O)OP(=O)(O)OP(=O)(O)O)O2)c(=O)[nH]c1=O (stereo partly shown) | 98% | 90%
CSSC(C)c1cc(NC(C)=O)ccc1C(=O)OC1C[C@H](n2cc(C)c(=O)[nH]c2=O)O[C@@H]1COP(=O)(O)OP(=O)(O)OP(=O)(O)O (stereo partly shown) | 98% | 100%
Cc1cn([C@H]2CC(OC(=O)Cc3ccccc3CN=[N+]=[N-])[C@@H](COP(=O)(O)OP(=O)(O)OP(=O)(O)O)O2)c(=O)[nH]c1=O (stereo partly shown) | 89% | 95%
CCSSC(C)c1ccccc1C(=O)OC1C[C@H](n2cc(C)c(=O)[nH]c2=O)O[C@@H]1COP(=O)(O)OP(=O)(O)OP(=O)(O)O (stereo partly shown) | 110% | 100%
CSSC(C)c1ccccc1C(=O)OC1C[C@H](n2cc(C)c(=O)[nH]c2=O)O[C@@H]1COP(=O)(O)OP(=O)(O)OP(=O)(O)O (stereo partly shown) | 111% | 100%
Cc1cn([C@H]2CC(OC(=O)c3ccccc3C(C)SSC(C)C)[C@@H](COP(=O)(O)OP(=O)(O)OP(=O)(O)O)O2)c(=O)[nH]c1=O (stereo partly shown) | 103% | 95%
Cc1cn([C@H]2CC(OC(=O)Cc3ccccc3C(C)N=[N+]=[N-])[C@@H](COP(=O)(O)OP(=O)(O)OP(=O)(O)O)O2)c(=O)[nH]c1=O (stereo partly shown) | 91% | 98%
Cc1cn([C@H]2CC(OC(=O)c3ccccc3CN=[N+]=[N-])[C@@H](COP(=O)(O)OP(=O)(O)OP(=O)(O)O)O2)c(=O)[nH]c1=O (stereo partly shown) | 91% | 98%
Cc1cn([C@H]2CC(OC(=O)CCCN=[N+]=[N-])[C@@H](COP(=O)(O)OP(=O)(O)OP(=O)(O)O)O2)c(=O)[nH]c1=O (stereo partly shown) | 36% | 95%
Cc1cn([C@H]2CC(OC(=O)c3cccnc3C(C)N=[N+]=[N-])[C@@H](COP(=O)(O)OP(=O)(O)OP(=O)(O)O)O2)c(=O)[nH]c1=O (stereo partly shown) | 115% | 100%
Cc1cn([C@H]2CC(OC(=O)c3cccnc3C(C)(C)N=[N+]=[N-])[C@@H](COP(=O)(O)OP(=O)(O)OP(=O)(O)O)O2)c(=O)[nH]c1=O (stereo partly shown) | 110% | 95%
Cc1cn([C@H]2CC(OC(=O)c3ccccc3CCN=[N+]=[N-])[C@@H](COP(=O)(O)OP(=O)(O)OP(=O)(O)O)O2)c(=O)[nH]c1=O (stereo partly shown) | Incorporation efficiency (EI) 100% Cleavage efficiency (EC) 100% | Incorporation efficiency (EI) 100% Cleavage efficiency (EC) 100%
COc1ccc(C(=O)OC2C[C@H](n3ccc(N)nc3=O)O[C@@H]2COP(=O)(O)OP(=O)(O)OP(=O)(O)O)c(C(C)SSC)c1 (stereo partly shown) | 101% | 104%
COc1ccc(C(=O)OC2C[C@H](n3cc(C)c(=O)[nH]c3=O)O[C@@H]2COP(=O)(O)OP(=O)(O)OP(=O)(O)O)c(C(C)N=[N+]=[N-])c1 (stereo partly shown) | 98% | 101%
